“And” between values parts separate entries of the source, which are not always exact repeats. Identical values can stand only once.
Experiment: Biodistribution of representative compounds ([^18F]Sri-07-56, [^18F]Sri-07-52, [^18F]JHU1221823, [^18F]FAPI-74), tissue % ID/g with carrier or blocker
Assay type: in vivo, mouse
Conditions: 20 μCi per mouse; for Bladder % ID/g / Blood % ID/g / Brain % ID/g / Fat % ID/g / Femur % ID/g / Heart % ID/g / Kidney % ID/g / Large intestine % ID/g / Liver % ID/g / Lung % ID/g / Muscle % ID/g / Pancreas % ID/g / Salivery gland % ID/g / Small intestine % ID/g / Spleen % ID/g / Stomach % ID/g / Tumor % ID/g: individual mice
From the text: Biodistribution of Representative Compounds

N#C[C@@H]1CCCN1C(=O)CNC(=O)c1ccnc2ccc(OCCCNC(=O)CCOCCOCCOCCOCCNC(=O)[C@H](CCCCNC(=O)c3ccc([18F])nc3)NC(=O)CN3CCN(CC(=O)O)CCN(CC(=O)O)CCN(CC(=O)O)CC3)cc12 [[^18F]JHU1221823]
Bladder % ID/g Mean (60 min): 4.53 % ID/g
Blood % ID/g Mean (60 min): 9.54 % ID/g
Brain % ID/g Mean (60 min): 0.22 % ID/g
Fat % ID/g Mean (60 min): 1.07 % ID/g
Femur % ID/g Mean (60 min): 2.83 % ID/g
Heart % ID/g Mean (60 min): 4.65 % ID/g
Kidney % ID/g Mean (60 min): 2.73 % ID/g
Large intestine % ID/g Mean (60 min): 1.49 % ID/g
Liver % ID/g Mean (60 min): 2.99 % ID/g
Lung % ID/g Mean (60 min): 5.72 % ID/g
Muscle % ID/g Mean (60 min): 1.78 % ID/g
Pancreas % ID/g Mean (60 min): 2.14 % ID/g
Salivary gland % ID/g Mean (60 min): 6.93 % ID/g
Small intestine % ID/g Mean (60 min): 3.02 % ID/g
Spleen % ID/g Mean (60 min): 2.15 % ID/g
Stomach % ID/g Mean (60 min): 1.14 % ID/g
Tumor % ID/g Mean (60 min): 5.71 % ID/g
Bladder % ID/g (60 min): 6.41 % ID/g and 2.64 % ID/g
Blood % ID/g (60 min): 9.28 % ID/g and 9.80 % ID/g
Brain % ID/g (60 min): 0.23 % ID/g and 0.22 % ID/g
Fat % ID/g (60 min): 0.47 % ID/g and 1.68 % ID/g
Femur % ID/g (60 min): 2.55 % ID/g and 3.11 % ID/g
Heart % ID/g (60 min): 4.31 % ID/g and 4.98 % ID/g
Kidney % ID/g (60 min): 2.70 % ID/g and 2.77 % ID/g
Large intestine % ID/g (60 min): 1.29 % ID/g and 1.69 % ID/g
Liver % ID/g (60 min): 2.68 % ID/g and 3.29 % ID/g
Lung % ID/g (60 min): 5.53 % ID/g and 5.91 % ID/g
Muscle % ID/g (60 min): 1.79 % ID/g and 1.78 % ID/g
Pancreas % ID/g (60 min): 1.62 % ID/g and 2.66 % ID/g
Salivery gland % ID/g (60 min): 7.44 % ID/g and 6.43 % ID/g
Small intestine % ID/g (60 min): 2.59 % ID/g and 3.46 % ID/g
Spleen % ID/g (60 min): 1.86 % ID/g and 2.43 % ID/g
Stomach % ID/g (60 min): 0.84 % ID/g and 1.45 % ID/g
Tumor % ID/g (60 min): 4.35 % ID/g and 7.05 % ID/g
Bladder % ID/g Mean (120 min): 1.92 % ID/g
Blood % ID/g Mean (120 min): 6.28 % ID/g
Brain % ID/g Mean (120 min): 0.18 % ID/g
Fat % ID/g Mean (120 min): 1.45 % ID/g
Femur % ID/g Mean (120 min): 1.61 % ID/g
Heart % ID/g Mean (120 min): 3.49 % ID/g
Kidney % ID/g Mean (120 min): 1.93 % ID/g
Large intestine % ID/g Mean (120 min): 1.38 % ID/g
Liver % ID/g Mean (120 min): 2.18 % ID/g
Lung % ID/g Mean (120 min): 3.65 % ID/g
Muscle % ID/g Mean (120 min): 1.16 % ID/g
Pancreas % ID/g Mean (120 min): 4.67 % ID/g
Salivary gland % ID/g Mean (120 min): 8.11 % ID/g
Small intestine % ID/g Mean (120 min): 2.04 % ID/g
Spleen % ID/g Mean (120 min): 1.58 % ID/g
Stomach % ID/g Mean (120 min): 1.24 % ID/g
Tumor % ID/g Mean (120 min): 2.91 % ID/g
Bladder % ID/g (120 min): 2.63 % ID/g and 1.21 % ID/g
Blood % ID/g (120 min): 5.77 % ID/g and 6.78 % ID/g
Brain % ID/g (120 min): 0.19 % ID/g and 0.17 % ID/g
Fat % ID/g (120 min): 0.97 % ID/g and 1.93 % ID/g
Femur % ID/g (120 min): 1.71 % ID/g and 1.91 % ID/g
Heart % ID/g (120 min): 3.18 % ID/g and 3.79 % ID/g
Kidney % ID/g (120 min): 1.61 % ID/g and 2.24 % ID/g
Large intestine % ID/g (120 min): 1.40 % ID/g and 1.36 % ID/g
Liver % ID/g (120 min): 1.94 % ID/g and 2.42 % ID/g
Lung % ID/g (120 min): 3.13 % ID/g and 4.16 % ID/g
Muscle % ID/g (120 min): 1.18 % ID/g and 1.15 % ID/g
Pancreas % ID/g (120 min): 4.03 % ID/g and 5.32 % ID/g
Salivery gland % ID/g (120 min): 5.17 % ID/g and 11.05 % ID/g
Small intestine % ID/g (120 min): 1.88 % ID/g and 2.21 % ID/g
Spleen % ID/g (120 min): 1.49 % ID/g and 1.67 % ID/g
Stomach % ID/g (120 min): 1.11 % ID/g and 1.37 % ID/g
Tumor % ID/g (120 min): 2.88 % ID/g and 2.94 % ID/g
